# Assay results as given in ChEMBL document CHEMBL1201862, “PubChem BioAssay data set” (2004).
# The source made the active and inactive calls.
# Assays:
# [1] = Fluorescence-based cell-based high throughput dose response assay for inhibitors of the interaction of nucleotide-binding oligomerization domain containing 2 (NOD2) and the receptor-interacting serine-threonine kinase 2 (RIPK2).; assay type: functional; conditions: Homo sapiens
# [2] = target: FAD-linked sulfhydryl oxidase ALR (Homo sapiens, UniProt P55789); test: ALR-catalysed DTT oxidation blockers – biochemical, H2O2 detection, luminescence, cherry-pick, dose response (AID 493248)
# [3] = target: T1, Heat shock factor protein 1 (Mus musculus, UniProt P38532); test: enhancement of HSF1-driven luciferase signal – cell-based, NIH3T3, luminescence, dose retest, confirmation (AID 435004); assay type: functional;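 note: stress induced by proteasome inhibitor MG132 added 30 min after compound; luciferase reporter driven by HSF1 response element in NIH3T3 cells; actives raise luminescence as potentiators of the MG132 stress response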
# T1 sequence (P38532 whole entry): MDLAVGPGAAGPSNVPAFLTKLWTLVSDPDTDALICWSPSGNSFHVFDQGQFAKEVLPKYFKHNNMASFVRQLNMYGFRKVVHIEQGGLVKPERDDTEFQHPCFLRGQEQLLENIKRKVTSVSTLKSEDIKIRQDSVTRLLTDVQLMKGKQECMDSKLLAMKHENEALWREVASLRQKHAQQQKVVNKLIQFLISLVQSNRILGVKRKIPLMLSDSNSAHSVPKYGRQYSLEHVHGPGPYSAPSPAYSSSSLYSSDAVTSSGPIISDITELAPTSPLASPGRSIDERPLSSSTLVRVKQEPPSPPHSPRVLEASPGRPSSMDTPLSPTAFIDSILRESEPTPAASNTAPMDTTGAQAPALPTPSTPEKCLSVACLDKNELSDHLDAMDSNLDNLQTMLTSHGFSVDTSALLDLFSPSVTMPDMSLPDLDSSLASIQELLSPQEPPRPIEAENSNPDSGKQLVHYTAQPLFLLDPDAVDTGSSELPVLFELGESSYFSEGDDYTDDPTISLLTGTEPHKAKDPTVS
# [4] = loss of viability in HepG2 cells – cell-based, CellTiter-Glo, cherry-picked, cytotoxicity control for Shn3 inhibitor project, dose response (AID 624134); assay type: functional
# [5] = reduction of Shn3 3'UTR-driven luciferase in osteoblasts – cell-based, Clone20 osteoblasts, firefly luciferase, cherry-picked, dose response (AID 624132); assay type: functional;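 note: firefly luciferase luminescence from reporter carrying the Shn3 3'UTR in osteoblasts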
# [6] = target: ATP-binding cassette sub-family B member 6 (Homo sapiens, UniProt Q9NP58); test: ABCB6 transporter inhibitors, porphyrin accumulation, dose response, flow cytometry, K562-ABCB6 cells, cherry pick 02 (AID 624487); assay type: functional; conditions: read-out: EC50_MICROM
# [7] = non-specific 3'UTR reporter inhibition in Clone20-Shn3RL – cell-based, Renilla luciferase, cherry-picked, counter-screen for Shn3 inhibitor project, dose response (AID 624133); assay type: functional
# [8] = system: HEK293; test: cells; conditions: Homo sapiens
# [9] = target: T2, Replicative DNA helicase DnaB (Mycobacterium tuberculosis, UniProt P9WMR3); test: DnaB intein splicing inhibitors, dose response, biochemical, cell-free fluorescence (AID 449749); assay type: functional
# T2 sequence (P9WMR3 whole entry): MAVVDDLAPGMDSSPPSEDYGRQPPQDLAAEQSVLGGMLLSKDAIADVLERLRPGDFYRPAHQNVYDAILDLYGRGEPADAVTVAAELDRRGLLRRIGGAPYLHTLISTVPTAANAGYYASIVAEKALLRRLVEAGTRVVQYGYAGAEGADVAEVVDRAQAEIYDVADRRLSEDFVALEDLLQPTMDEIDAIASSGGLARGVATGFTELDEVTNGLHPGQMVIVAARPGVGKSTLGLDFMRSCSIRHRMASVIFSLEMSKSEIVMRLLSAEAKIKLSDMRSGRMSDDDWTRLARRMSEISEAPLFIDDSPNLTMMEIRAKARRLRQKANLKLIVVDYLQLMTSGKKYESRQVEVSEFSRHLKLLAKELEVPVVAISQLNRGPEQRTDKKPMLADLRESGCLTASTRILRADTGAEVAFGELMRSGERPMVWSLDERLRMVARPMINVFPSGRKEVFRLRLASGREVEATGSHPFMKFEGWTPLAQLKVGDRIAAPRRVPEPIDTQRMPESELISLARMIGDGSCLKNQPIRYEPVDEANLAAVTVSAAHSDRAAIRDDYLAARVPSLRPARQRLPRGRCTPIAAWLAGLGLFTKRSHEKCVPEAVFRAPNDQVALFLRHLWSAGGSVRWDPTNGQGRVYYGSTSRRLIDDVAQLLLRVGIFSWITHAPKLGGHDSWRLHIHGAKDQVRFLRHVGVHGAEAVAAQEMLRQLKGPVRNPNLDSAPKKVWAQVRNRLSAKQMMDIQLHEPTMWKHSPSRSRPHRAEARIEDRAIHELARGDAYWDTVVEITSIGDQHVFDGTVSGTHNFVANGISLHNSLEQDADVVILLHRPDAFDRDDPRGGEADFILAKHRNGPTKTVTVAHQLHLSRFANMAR
# [10] = target: T3, Protein RecA (Mycobacterium tuberculosis, UniProt P9WHJ3); test: Fluorescence Cell-Free Homogeneous Dose Retest to Identify Inhibitors of RecA-Intein Splicing Activity. [Related pubchem assays (depositor defined):AID2097, AID2223, AID489010, AID492950]; assay type: functional
# T3 sequence (P9WHJ3 whole entry): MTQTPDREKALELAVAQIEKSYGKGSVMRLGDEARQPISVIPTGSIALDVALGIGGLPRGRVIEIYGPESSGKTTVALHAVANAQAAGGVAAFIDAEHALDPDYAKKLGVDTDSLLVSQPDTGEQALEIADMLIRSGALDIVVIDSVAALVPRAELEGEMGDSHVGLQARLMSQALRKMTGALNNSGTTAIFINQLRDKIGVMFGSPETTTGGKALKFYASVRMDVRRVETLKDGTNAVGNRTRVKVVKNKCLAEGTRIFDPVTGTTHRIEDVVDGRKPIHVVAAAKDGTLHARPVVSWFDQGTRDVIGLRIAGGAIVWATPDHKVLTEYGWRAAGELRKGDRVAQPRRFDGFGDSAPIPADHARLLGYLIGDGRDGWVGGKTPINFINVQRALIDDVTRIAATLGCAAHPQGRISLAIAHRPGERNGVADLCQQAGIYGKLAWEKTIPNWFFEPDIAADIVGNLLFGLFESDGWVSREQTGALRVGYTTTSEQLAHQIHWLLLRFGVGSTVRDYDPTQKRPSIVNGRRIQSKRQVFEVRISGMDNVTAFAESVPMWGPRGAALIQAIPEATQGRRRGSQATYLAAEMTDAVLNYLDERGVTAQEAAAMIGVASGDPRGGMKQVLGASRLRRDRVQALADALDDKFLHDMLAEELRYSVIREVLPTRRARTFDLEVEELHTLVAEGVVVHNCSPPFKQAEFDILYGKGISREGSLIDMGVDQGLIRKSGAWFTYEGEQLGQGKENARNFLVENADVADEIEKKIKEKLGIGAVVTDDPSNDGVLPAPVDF
# [11] = system: HEK293; test: cells; conditions: Homo sapiens; remark: listed apart in the source
# [12] = target: SWI/SNF-related matrix-associated actin-dependent regulator of chromatin subfamily A member 2 (Homo sapiens, UniProt P51531); test: Luminescence-based cell-based high throughput dose response assay to identify activators of the function of SWI/SNF related, matrix associated, actin dependent regulator of chromatin, subfamily a, member 2 (SMARCA2, BRM).; assay type: functional
# [13] = Counterscreen for activators of the function of SWI/SNF related, matrix associated, actin dependent regulator of chromatin, subfamily a, member 2 (SMARCA2, BRM): Luminescence-based cell-based high throughput dose response assay to identify non-selective compounds using the VP16 reporter assay.; assay type: functional
# [14] = Luminescence Cell-Based Dose Response to Identify Activators of Luciferase Translation or Activity in H4-C Neuroglioblastoma Cells. [Related pubchem assays: 1829 (Project Summary), 1814 (Primary HTS)]; assay type: functional
# [15] = target: Broad substrate specificity ATP-binding cassette transporter ABCG2 (Homo sapiens, UniProt Q9UNQ0); test: blockers of JC-1 export by ABCG2 – Ig-MXP3 cells, flow cytometry, dose response (AID 1690); assay type: functional
# [16] = system: H4; test: Luminescence Cell-Based Dose Response HTS to Identify Activators of 5'UTR Stem-Loop Driven Prion Protein mRNA Translation in H4 Neuroglioblastoma Cells. [Related pubchem assays: 1829 (Project Summary), 1814 (Primary HTS)]; assay type: functional; conditions: Homo sapiens
# [17] = Luminescence Cell-Based Dose Response HTS to Identify Activators of Luciferase Translation or Activity in H4 […] Cells. [Related pubchem assays: 1829 (Project Summary), 1814 (Primary HTS)]; assay type: functional
# [18] = target: T4, Protein skinhead-1 (Caenorhabditis elegans, UniProt P34707); assay type: functional
# T4 sequence (P34707 whole entry): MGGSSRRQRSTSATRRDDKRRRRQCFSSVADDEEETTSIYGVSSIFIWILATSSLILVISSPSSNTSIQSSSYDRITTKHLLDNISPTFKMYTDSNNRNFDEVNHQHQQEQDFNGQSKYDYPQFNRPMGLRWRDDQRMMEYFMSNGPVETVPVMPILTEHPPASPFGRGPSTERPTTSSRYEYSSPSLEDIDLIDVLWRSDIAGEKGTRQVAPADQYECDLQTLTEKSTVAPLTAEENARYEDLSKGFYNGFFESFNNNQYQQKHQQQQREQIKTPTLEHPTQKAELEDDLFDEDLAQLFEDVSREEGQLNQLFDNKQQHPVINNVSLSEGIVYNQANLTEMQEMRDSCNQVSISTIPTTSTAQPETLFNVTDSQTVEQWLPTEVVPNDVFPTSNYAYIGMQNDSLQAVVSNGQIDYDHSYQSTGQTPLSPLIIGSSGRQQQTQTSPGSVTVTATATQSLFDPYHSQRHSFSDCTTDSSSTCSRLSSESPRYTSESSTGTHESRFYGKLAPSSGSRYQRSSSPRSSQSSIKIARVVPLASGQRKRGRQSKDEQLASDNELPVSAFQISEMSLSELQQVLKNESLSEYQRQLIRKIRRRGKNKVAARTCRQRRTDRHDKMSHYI
# [19] = target: ATP-dependent translocase ABCB1 (Homo sapiens, UniProt P08183); test: inhibition of P-gp mediated JC-1 efflux – Jurkat-DNR cells, flow cytometry, dose response (AID 1689); assay type: functional
# [20] = Luminescence Cell-Based Dose Response to Identify Activators of 5'UTR Stem-Loop Driven Prion Protein mRNA Translation in H4-C Neuroglioblastoma Cells. [Related pubchem assays: 1829 (Project Summary), 1814 (Primary HTS)]; assay type: functional
# [21] = Luminescence Cell-Based Dose Confirmation to Identify Activators of 5'UTR Stem-Loop Driven Alpha-Synuclein mRNA Translation in H4 Neuroglioblastoma Cells. [Related pubchem assays: 1829 (Project Summary), 1814 (Primary HTS)]; assay type: functional
# ATP-binding cassette sub-family B member 6, sequence (Q9NP58 whole entry): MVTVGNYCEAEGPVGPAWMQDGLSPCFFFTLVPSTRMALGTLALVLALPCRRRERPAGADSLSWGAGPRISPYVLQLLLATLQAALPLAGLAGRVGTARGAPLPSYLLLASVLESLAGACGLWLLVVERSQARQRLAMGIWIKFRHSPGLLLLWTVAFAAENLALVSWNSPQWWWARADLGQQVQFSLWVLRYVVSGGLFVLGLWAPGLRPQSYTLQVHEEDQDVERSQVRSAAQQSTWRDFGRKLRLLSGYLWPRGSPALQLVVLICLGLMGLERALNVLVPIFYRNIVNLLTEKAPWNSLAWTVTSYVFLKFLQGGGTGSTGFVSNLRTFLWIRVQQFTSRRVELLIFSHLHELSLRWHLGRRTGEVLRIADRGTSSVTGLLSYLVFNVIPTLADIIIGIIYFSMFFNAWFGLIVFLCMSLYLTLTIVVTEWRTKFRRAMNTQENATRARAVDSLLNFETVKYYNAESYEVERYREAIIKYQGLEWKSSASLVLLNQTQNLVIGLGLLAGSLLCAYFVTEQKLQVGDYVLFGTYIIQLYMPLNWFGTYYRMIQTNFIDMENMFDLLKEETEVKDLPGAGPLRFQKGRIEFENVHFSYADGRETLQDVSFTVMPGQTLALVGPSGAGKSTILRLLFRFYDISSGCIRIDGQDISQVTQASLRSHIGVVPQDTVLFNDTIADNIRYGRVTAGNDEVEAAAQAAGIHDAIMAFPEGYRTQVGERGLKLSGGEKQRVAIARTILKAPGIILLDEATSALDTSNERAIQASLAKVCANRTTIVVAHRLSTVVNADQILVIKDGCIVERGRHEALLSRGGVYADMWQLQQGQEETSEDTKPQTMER
# Broad substrate specificity ATP-binding cassette transporter ABCG2, sequence (Q9UNQ0 whole entry): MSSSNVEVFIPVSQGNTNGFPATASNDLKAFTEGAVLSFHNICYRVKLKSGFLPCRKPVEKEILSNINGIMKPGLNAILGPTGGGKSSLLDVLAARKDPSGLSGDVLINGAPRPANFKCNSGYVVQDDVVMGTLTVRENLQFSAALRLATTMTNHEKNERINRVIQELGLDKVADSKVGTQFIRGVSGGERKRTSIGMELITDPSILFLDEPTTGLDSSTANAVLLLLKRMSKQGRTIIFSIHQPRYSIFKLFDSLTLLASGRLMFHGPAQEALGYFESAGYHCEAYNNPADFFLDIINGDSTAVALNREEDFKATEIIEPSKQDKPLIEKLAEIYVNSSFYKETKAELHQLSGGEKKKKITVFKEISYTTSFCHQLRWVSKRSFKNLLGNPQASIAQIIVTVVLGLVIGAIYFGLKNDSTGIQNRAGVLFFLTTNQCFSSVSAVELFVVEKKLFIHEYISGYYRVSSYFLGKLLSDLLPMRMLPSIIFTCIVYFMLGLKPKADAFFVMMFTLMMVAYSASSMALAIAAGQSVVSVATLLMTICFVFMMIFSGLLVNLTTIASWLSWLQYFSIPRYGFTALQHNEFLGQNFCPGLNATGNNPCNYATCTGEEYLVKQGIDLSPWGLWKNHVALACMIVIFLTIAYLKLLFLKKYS
# SWI/SNF-related matrix-associated actin-dependent regulator of chromatin subfamily A member 2, sequence (P51531 whole entry): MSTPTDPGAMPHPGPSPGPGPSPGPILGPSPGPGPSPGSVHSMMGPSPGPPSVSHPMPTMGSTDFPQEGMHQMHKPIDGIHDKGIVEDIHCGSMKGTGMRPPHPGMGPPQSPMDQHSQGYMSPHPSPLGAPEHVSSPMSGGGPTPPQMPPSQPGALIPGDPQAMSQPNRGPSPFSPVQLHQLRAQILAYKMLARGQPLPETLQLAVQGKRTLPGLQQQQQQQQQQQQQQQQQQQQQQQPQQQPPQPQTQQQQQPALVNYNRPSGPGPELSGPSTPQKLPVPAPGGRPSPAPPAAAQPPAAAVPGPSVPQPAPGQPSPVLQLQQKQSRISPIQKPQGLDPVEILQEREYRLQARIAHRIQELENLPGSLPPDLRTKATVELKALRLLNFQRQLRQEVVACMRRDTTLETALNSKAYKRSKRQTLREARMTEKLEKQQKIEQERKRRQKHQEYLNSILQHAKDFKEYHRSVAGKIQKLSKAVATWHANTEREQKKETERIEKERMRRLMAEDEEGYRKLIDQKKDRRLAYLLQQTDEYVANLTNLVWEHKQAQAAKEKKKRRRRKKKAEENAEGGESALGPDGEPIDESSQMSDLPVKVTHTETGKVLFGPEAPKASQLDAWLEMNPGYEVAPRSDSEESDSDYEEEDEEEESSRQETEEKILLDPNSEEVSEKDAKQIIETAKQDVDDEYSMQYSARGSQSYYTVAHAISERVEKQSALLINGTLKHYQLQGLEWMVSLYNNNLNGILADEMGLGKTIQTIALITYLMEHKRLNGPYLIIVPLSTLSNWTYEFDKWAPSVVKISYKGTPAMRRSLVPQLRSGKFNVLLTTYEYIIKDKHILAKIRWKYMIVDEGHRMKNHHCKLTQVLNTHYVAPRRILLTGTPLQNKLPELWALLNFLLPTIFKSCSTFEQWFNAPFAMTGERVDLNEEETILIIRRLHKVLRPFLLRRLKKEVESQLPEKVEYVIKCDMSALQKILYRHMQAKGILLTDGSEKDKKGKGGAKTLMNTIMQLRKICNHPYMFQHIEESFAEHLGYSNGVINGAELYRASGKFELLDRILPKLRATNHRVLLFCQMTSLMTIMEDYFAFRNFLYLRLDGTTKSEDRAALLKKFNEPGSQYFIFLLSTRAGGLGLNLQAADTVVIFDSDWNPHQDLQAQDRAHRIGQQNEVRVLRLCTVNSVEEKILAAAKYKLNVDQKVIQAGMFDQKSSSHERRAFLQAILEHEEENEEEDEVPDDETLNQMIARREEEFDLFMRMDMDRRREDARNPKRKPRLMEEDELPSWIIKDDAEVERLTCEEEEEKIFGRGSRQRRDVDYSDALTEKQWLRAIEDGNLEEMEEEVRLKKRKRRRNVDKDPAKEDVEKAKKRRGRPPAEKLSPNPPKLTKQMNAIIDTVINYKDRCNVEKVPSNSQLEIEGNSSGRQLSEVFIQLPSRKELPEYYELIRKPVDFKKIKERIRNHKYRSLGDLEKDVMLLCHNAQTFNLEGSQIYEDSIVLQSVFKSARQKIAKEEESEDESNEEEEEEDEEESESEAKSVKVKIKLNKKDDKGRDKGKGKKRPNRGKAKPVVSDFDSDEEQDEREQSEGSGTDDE
# ATP-dependent translocase ABCB1, sequence (P08183 whole entry): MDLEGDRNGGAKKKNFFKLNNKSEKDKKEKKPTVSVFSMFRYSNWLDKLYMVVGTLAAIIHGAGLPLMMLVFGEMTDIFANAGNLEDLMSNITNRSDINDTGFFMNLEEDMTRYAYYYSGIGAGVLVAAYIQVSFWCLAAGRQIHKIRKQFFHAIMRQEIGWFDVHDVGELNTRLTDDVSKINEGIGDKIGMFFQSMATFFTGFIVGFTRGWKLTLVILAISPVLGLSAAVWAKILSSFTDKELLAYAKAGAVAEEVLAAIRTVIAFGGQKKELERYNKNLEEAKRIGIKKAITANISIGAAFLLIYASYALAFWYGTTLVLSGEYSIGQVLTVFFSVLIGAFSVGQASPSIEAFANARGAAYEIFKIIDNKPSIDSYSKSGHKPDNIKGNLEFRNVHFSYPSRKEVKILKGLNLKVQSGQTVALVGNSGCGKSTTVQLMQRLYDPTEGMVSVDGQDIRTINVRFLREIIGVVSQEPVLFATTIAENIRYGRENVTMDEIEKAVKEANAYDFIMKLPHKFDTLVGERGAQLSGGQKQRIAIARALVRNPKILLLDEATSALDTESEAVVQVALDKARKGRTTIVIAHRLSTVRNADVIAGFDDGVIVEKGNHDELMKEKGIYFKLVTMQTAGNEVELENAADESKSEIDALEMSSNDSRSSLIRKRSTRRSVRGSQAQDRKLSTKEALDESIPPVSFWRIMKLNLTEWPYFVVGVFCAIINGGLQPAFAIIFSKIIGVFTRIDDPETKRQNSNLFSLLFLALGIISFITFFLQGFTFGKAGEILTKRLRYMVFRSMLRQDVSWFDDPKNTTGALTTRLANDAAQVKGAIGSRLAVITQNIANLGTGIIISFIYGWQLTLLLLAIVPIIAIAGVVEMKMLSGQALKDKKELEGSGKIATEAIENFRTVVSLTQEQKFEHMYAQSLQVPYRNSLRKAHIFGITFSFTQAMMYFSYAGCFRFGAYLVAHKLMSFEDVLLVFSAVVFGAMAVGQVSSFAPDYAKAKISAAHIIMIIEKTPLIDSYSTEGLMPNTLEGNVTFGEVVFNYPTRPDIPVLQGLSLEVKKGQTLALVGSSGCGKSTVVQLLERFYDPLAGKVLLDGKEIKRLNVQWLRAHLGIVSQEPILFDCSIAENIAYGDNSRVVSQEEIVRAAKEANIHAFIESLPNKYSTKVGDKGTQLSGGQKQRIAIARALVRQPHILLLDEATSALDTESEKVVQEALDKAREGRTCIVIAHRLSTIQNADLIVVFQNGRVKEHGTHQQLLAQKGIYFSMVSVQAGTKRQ
# FAD-linked sulfhydryl oxidase ALR, sequence (P55789 whole entry): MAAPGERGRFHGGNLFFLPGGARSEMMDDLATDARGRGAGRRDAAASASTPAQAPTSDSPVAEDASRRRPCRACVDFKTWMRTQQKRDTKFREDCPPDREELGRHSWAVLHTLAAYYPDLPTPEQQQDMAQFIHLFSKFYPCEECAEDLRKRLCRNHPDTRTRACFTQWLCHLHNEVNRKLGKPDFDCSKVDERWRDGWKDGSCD
structure (smiles),measurement,setting,value
Cc1cccc(C)c1NC(=O)c1nc(S(=O)(=O)Cc2ccccc2)ncc1Cl,IC50,[1],4.11 µM (active)
same,AC50,[2],1.74 µM (active)
same,EC50,[3],9.13 µM (active)
same,AC50,[4],22.9 µM (active)
same,AC50,[5],4.33 µM (active)
same,EC50,[6],38.1 µM (active)
same,AC50,[7],10.6 µM (active)
same,EC50,[8],> 59.6 µM (inactive)
same,AC50,[9],4.34 µM (active)
same,EC50,[10],6.63 µM (active)
same,EC50,[11],> 59.6 µM (inactive)
COc1ccc(-c2nc(C#N)c(NCC3CCCO3)o2)cc1 (stereo unspecified),EC50,[12],> 91.1 µM (inactive)
same,EC50,[13],> 91.1 µM (inactive)
O=[N+]([O-])c1ccccc1-c1nc(-c2ccc(Br)o2)no1,EC50,[14],0.364 µM (active)
same,EC50,[15],4.88 µM (active)
same,EC50,[16],> 120 µM (not active)
same,EC50,[17],< 0.1 µM (active)
same,IC50,[18],69.1 µM (inactive)
same,EC50,[19],28.2 µM (inactive)
same,EC50,[20],0.302 µM (active)
same,EC50,[21],0.252 µM (active)
